# Experiments:
# [1] = test system: IFN-alpha; experiment: Example 45 cytokine study in PBMC, IFN-alpha ELISA; assay type: cell-based, human; conditions: for IFN-alpha signal - 2 donor average: PBMC
# Experimental: (§1) The plates were then incubated at 37 C.
# (§2) Each condition was done in duplicate.
# (§3) Shown in Tables 69 and 70 are the average from 2 separate PBMC donors of the G-CSF and IFN-alpha production over time as measured by specific ELISA.
# [2] = test system: TNF-alpha; experiment: Example 46A percent-modified G-CSF mRNA transfected in PBMC, TNF-alpha ELISA; assay type: cell-based, human
# Experimental: The supernatant was harvested and run by ELISA 22 hours after transfection to determine the protein expression.
# [3] = test system: Female BALB/C mice; experiment: In vivo detection of innate immune response: human G-CSF and mouse IFN-alpha in serum after I.M. injection; conditions: I.M., 8 hours after dosing
# Experimental: Blood is collected at 8 hours after dosing and using ELISA the protein levels of G-CSF and interferon-alpha (IFN-alpha) is determined by ELISA and are shown in Table 81.
# [4] = test system: mice; experiment: In vivo cytokine expression study (serum IFN-alpha); conditions: mouse serum; I.M. 200 ug mRNA; after 8 hours
# Experimental: After 8 hours serum was collected from the mice and analyzed for interferon-alpha (IFN-alpha) expression.
# [5] = test system: female Sprague Dawley rats; experiment: In vivo delivery of modified RNA: G-CSF protein in rat serum (I.M.); conditions: I.M. 400 ug in 100 ul, 5% sucrose, 8 hours after injection
# Experimental: Protein production of modified mRNA was evaluated by delivering modified G-CSF mRNA or modified Factor IX mRNA to female Sprague Dawley rats (n=6). […] Blood was collected 8 hours after injection and the G-CSF protein level in serum was measured by ELISA.
# [6] = test system: Factor IX protein; experiment: Factor IX mRNA transfected in serum-free media (2D HPLC / MALDI peptide detection); assay type: cell-based, Human; conditions: 8 peptides detected, 7 unique to Factor IX
# Description: The cell culture supernatant was collected and subjected to trypsin digestion before undergoing 2-dimensional HPLC separation of the peptides. Matrix-assisted laser desorption/ionization was used to detect the peptides. 8 peptides were detected and 7 of the detected peptides are unique to Factor IX.
# [7] = test system: Factor IX; experiment: Example 16 lipid nanoparticle in vivo study, serum Factor IX ELISA; design: species or system mice
# Experimental: Mice were sacrificed at 8 hrs after dosing. […] Protein expression was determined by ELISA.
# As used in Table 30, the symbol “˜” means about.
# [8] = test system: Factor IX; experiment: Example 39 in vivo study of Factor IX mmRNA IM, serum Factor IX; conditions: mice IM, 2×100 ug/mouse, 13 hours
# Experimental: Human Factor IX mmRNA (Gen1; fully modified 5-methycytosine and pseudouridine) formulated in formulation buffer was delivered to mice via intramuscular injection.
# The mice were bled at 13 hours after the intramuscular injection to determine the concentration of human the polypeptide in serum in pg/mL.
# [9] = test system: HEK293A; experiment: Example 44 signal sequence exchange study, secreted G-CSF ELISA; assay type: cell-based, human; conditions: 293A, 250 ng modified mRNA, supernatant after 24 hrs
# Description: (§4) These variants included the G-CSF constructs encoding either the wild-type N terminal secretory signal peptide sequence ([…]; SEQ ID NO: 21), no secretory signal peptide sequence, or secretory signal peptide sequences taken from other mRNAs. These included sequences where the wild type GCSF signal peptide sequence was replaced with the signal peptide sequence of either: human α-1-anti trypsin (AAT) ([…]; SEQ ID NO: 22), human Factor IX (FIX) ([…]; SEQ ID NO: 23), human Prolactin (Prolac) ([…]; SEQ ID NO: 24), or human Albumin (Alb) ([…]; SEQ ID NO: 25).
# (§5) 250 ng of modified mRNA encoding each G-CSF variant was transfected into HEK293A (293A in the table), mouse myoblast (MM in the table) (C2C12, CRL-1772, ATCC) and rat myoblast (RM in the table) (L6 line, CRL-1458, ATCC) cell lines in a 24 well plate using 1 ul of Lipofectamine 2000 (Life Technologies), each well containing 300,000 cells. […] The data shown in Table 68 reveal that cells transfected with G-CSF mmRNA encoding the Albumin signal peptide secrete at least 12 fold more G-CSF protein than its wild type counterpart.
# [10] = test system: mouse myoblast (C2C12); experiment: as above; assay type: cell-based; conditions: MM, 250 ng modified mRNA, supernatant after 24 hrs
# Description: as §4, §5
# [11] = test system: rat myoblast (L6 line); experiment: as above; assay type: cell-based; conditions: RM, 250 ng modified mRNA, supernatant after 24 hrs
# Description: as §4, §5
# [12] = test system: human G-CSF; experiment: Example 32C human G-CSF modified RNA lipoplex vs saline comparison IM/SC, serum G-CSF ELISA; assay type: in vivo, C57/BL6 mice; conditions: mouse serum, I.M. or S.C., 13 hours
# Experimental: A formulation containing 100 μg of either modified human G-CSF mRNA lipoplexed with 30% by volume of RNAIMAX™ with a 5-methylcytosine (5mc) and a pseudouridine (ψ) modification (G-CSF-Gen1-Lipoplex), modified human G-CSF mRNA with a 5mc and w modification in saline (G-CSF-Gen1-Saline), modified human G-CSF mRNA with a N1-5-methylcytosine (N1-5mc) and a w modification lipoplexed with 30% by volume of RNAIMAX™ (G-CSF-Gen2-Lipoplex), modified human G-CSF mRNA with a N1-5mc and ψ modification in saline (G-CSF-Gen2-Saline), modified luciferase with a 5mc and ψ modification lipoplexed with 30% by volume of RNAIMAX™ (Luc-Lipoplex), or modified luciferase mRNA with a a 5mc and ψ modification in saline (Luc-Saline) was delivered intramuscularly (I.M.) or subcutaneously (S.C.) and a control group for each method of administration was giving a dose of 80 uL of the formulation buffer (F. Buffer) to C57/BL6 mice. 13 hours post injection serum and tissue from the site of injection were collected from each mouse and analyzed by G-CSF ELISA to compare human G-CSF protein levels. The results of the human G-CSF protein in mouse serum from the intramuscular administration and the subcutaneous administration results are shown in Table 55.
# [13] = test system: neutrophil count; experiment: Example 40 multi-site IM and SC administration of G-CSF mRNA, neutrophil count; assay type: in vivo; conditions: mice, day 3
# Experimental: Injection of four doses or 2×50 ug (two sites) daily for three days (24 hrs interval) was performed. The fourth dose was administered 6 hrs before blood collection and CBC analysis. […] The mice were bled at 72 hours after the first mRNA injection (6 hours after the last mRNA dose) to determine the effect of mRNA-encoded human G-CSF on the neutrophil count. The dosing regimen is shown in Table 63 as are the resulting neutrophil counts (thousands/uL). In Table 63, an asterisks (*) indicate statistical significance at p<0.05.
# [14] = test system: human PBMC; experiment: Example 45 cytokine study in PBMC, G-CSF production ELISA; assay type: cell-based; conditions: Lipofectamine 2000
# Experimental: as §1, §2, §3
# In the G-CSF ELISA, background signal from the Lipofectamine 2000 untreated condition was subtracted at each timepoint. […] Many other cytokines were not affected by either modification.
molecule,measurement,setting,value
"CCOCc1nc2c(N)nc3ccccc3c2n1CC(C)(C)O [Formulation R-848, reference compound]",IFN-alpha signal - 2 donor average,[1]; 2 Hr,39.1 pg/mL
same,IFN-alpha signal - 2 donor average,[1]; 4 Hr,151.3 pg/mL
same,IFN-alpha signal - 2 donor average,[1]; 8 Hr,278.4 pg/mL
same,IFN-alpha signal - 2 donor average,[1]; 20 Hr,362.2 pg/mL
same,IFN-alpha signal - 2 donor average,[1]; 44 Hr,208.1 pg/mL
same,TNF-alpha Expression,[2],256.6 pg/mL
same,G-CSF protein,"[3]; human G-CSF in mouse serum, 200 ug/mouse mRNA (R848 75 ug) in 5% sucrose",3.4 pg/mL
same,IFN-alpha expression,"[3]; mouse IFN-alpha in serum, 200 ug/mouse mRNA (R848 75 ug)",40.97 pg/mL
same,IFN-alpha,[4],40.971 pg/mL
"Factor IX Gen 1: Factor IX mRNA SEQ ID NO: 10, Cap1, fully modified with 5-methylcytosine and pseudouridine",G-CSF protein,[5],2.25 pg/mL
same,expression of Factor IX protein,[6],able to express full-length Factor IX protein
"Factor IX: human Factor IX mRNA SEQ ID NO: 10, polyA ~160 nt, Cap1, fully modified with 5-methylcytosine and pseudouridine",Factor IX Serum Concentration 8-12 hours after administration,"[7]; IM, 2 × 100 ug",~1.6 ng/mL
same,Factor IX Serum Concentration 8-12 hours after administration,"[7]; IV (LNP), 1 ug",~40 ng/mL
same,Factor IX Serum Concentration 8-12 hours after administration,"[7]; IV (LNP), 10 ug",~400 ng/mL
same,Factor IX Serum Concentration 8-12 hours after administration,"[7]; IV (LNP), 100 ug","~3,000-10,000 ng/ml"
same,"Factor IX Protein Expression, Conc","[7]; mice IV LNP, 10 ug, serum 8 hrs",383.04 ng/mL
same,"Factor IX Protein Expression, Conc","[7]; mice IV LNP, 100 ug, serum 8 hrs, dilution 50x",3247.75 ng/mL
same,"Factor IX Protein Expression, Conc","[7]; mice IV LNP, 100 ug, serum 8 hrs, dilution 250x",11177.20 ng/mL
same,Factor IX protein expression,"[7]; mice IV LNP, 100 ug, serum 8 hrs, range given in text",3000 to 11000 ng/mL
same,Factor IX in serum,[8],1600 pg/mL
same,secreted G-CSF protein,[9],11675 pg/mL
same,secreted G-CSF protein,[10],6175 pg/mL
same,secreted G-CSF protein,[11],11675 pg/mL
"Gen2 G-CSF mRNA: human G-CSF mRNA SEQ ID NO: 6 fully modified with 5-methylcytosine and N1-methylpseudouridine (nucleic acid, listed as Homo sapiens, 5mC/N1-methylpseudouridine modified) GGGAAAUAAGAGAGAAAAGAAGAGUAAGAAGAAAUAUAAGAGCCACCAUGGCCGGUCCCGCGACCCAAAGCCCCAUGAAACUUAUGGCCCUGCAGUUGCUGCUUUGGCACUCGGCCCUCUGGACAGUCCAAGAAGCGACUCCUCUCGGACCUGCCUCAUCGUUGCCGCAGUCAUUCCUUUUGAAGUGUCUGGAGCAGGUGCGAAAGAUUCAGGGCGAUGGAGCCGCACUCCAAGAGAAGCUCUGCGCGACAUACAAACUUUGCCAUCCCGAGGAGCUCGUACUGCUCGGGCACAGCUUGGGGAUUCCCUGGGCUCCUCUCUCGUCCUGUCCGUCGCAGGCUUUGCAGUUGGCAGGGUGCCUUUCCCAGCUCCACUCCGGUUUGUUCUUGUAUCAGGGACUGCUGCAAGCCCUUGAGGGAAUCUCGCCAGAAUUGGGCCCGACGCUGGACACGUUGCAGCUCGACGUGGCGGAUUUCGCAACAACCAUCUGGCAGCAGAUGGAGGAACUGGGGAUGGCACCCGCGCUGCAGCCCACGCAGGGGGCAAUGCCGGCCUUUGCGUCCGCGUUUCAGCGCAGGGCGGGUGGAGUCCUCGUAGCGAGCCACCUUCAAUCAUUUUUGGAAGUCUCGUACCGGGUGCUGAGACAUCUUGCGCAGCCGUGAAGCGCUGCCUUCUGCGGGGCUUGCCUUCUGGCCAUGCCCUUCUUCUCUCCCUUGCACCUGUACCUCUUGGUCUUUGAAUAAAGCCUGAGUAGGAAG",human G-CSF protein production relative to 5-methylcytosine/pseudouridine modified mRNA,[12],increased human G-CSF protein production
same,increase in neutrophil count above control,[13]; intramuscular,two fold increase
same,increase in neutrophil count above control,[13]; subcutaneous,two fold increase
same,G-CSF production,[14],highest level of G-CSF production
same,"innate immune recognition, cytokine production (IFN-alpha and others)","[1]; human PBMC, Lipofectamine 2000",did not significantly increase cytokines
